From patent US20260294874A1, “COMPOSITIONS COMPRISING MODULATORS OF RIBONUCLEOPROTEIN GRANULE FORMATION AND DISSOLUTION AND METHODS OF USE THEREOF” (University of Virginia Patent Foundation, priority 2023, published 2026)
Entries after “also recorded” stand apart in the source; their conditions may differ.

Key:
[1] = tested on: G3BP1 WT-rescued G3BP KO cells; assay: SG formation in G3BP KO U20S cells rescued with G3BP1 WT; assay type: cell-based; details: 2 h; for inhibition at 25 µM: G3BP1 WT-rescued G3BP KO U20S cells, read-out: reduction in SGs/cell; for effect on SG formation (in words): G3BP1 WT-rescued G3BP KO cells, 25 μM
Description: G3BP KO and rescue studies. U20S G3BP1/2 double knockout (G3BP KO) cell-line was a kind gift from the C. Brangwynne lab (Princeton University, Princeton, New Jersey, United States of America) and generated as previously described in Kedersha et al., 2016. G3BP KO cells were seeded at 9.0×10^4 in a 24-well plate with 12-mm glass coverslips. Next day, the cells were transfected with […] vectors with 1 μg/mL tetracycline and LIPOFECTAMINE™ 3000 brand transfection reagent according to the manufacturer's protocol (Thermo Fisher Scientific). 20 hours post-transfection, the cells were treated with 25 μM SuTEx probes for 2 hours in DMEM medium without FBS. The cells were then treated with 75 μM NaAsO2 for 30 minutes and fixed with 3% paraformaldehyde in PBS for 15 minutes at RT and washed with PBS twice. The same protocols for IF of HeLa cells and quantification of G3BP1-positive SGs described above were followed thereafter.
To determine whether the cell biological effects mediated by HHS-166 were Y40-dependent, we expressed recombinant G3BP1 WT or Y40 mutant in previously established G3BP1/2 double knockout U20S (G3BP KO) cells (Kedersha et al., 2016; Sanders et al., 2020) and evaluated the resulting effects on SG response to [COMPOUND LEFT OUT]. We compared SG response of G3BP KO cells expressing a G3BP1 Y40 covalent binding- and phospho-deficient mutant (Y40F) with a phosphomimetic counterpart (Y40E). G3BP KO cells were previously shown to be deficient in [COMPOUND LEFT OUT]-induced SG formation (Sanders et al., 2020). Expression of G3BP1 WT rescued this deficiency and restored cellular SG response to [COMPOUND LEFT OUT] [1.6 vs 11 SGs/cell in (−)[COMPOUND LEFT OUT] vs (+)[COMPOUND LEFT OUT], respectively; FIGS. 6A and 6B].

G3BP1 Y40 = target: T1, G3BP1 Y40 (Homo sapiens, UniProt Q13283); assay: Competitive ABPP SILAC LC-MS/MS chemical proteomics, G3BP1 Y40; assay type: cell-based; details: stressed HeLa cells, 25 μM, 2 h
T1 construct: liganded site Y40 in NTF2 domain
Description: Preparation of SILAC proteomes for LC-MS/MS analysis. SILAC cell proteomes were fractionated to collect the supernatant and normalized to 2.3 mg/mL in PBS. ‘Heavy’ and ‘light’ proteomes were aliquoted (427 μL) and probe-modified proteins were conjugated to desthiobiotin-PEG-3-azide using copper-catalyze azide-alkyne cycloaddition, trypsinized into peptides using Trypsin/Lys-C Mix (Catalog No. V5071; Promega Corporation, Madison, Wisconsin, United States of America), enriched using PIERCE™ Avidin Agarose brand beads (Catalog No. 20219; Thermo Fisher Scientific Inc., Waltham, Massachusetts. United States of America), and prepared for nano-electrospray ionization-LC-MS/MS analysis as previously described in Hahm et al., 2020.
Data Analysis—Chemical Proteomics. Identification and analysis of peptides and proteins using LC-MS was accomplished using bioinformatics software and quality control parameter protocols as previously described in Hahm et al., 2020.
We performed quantitative liquid-chromatography tandem mass spectrometry (LC-MS/MS) chemical proteomic studies to identify the target protein and binding site(s) of SuTEx fragments with RNP granule modulating activity. […] SILAC light and heavy cells (HEK293T and HeLa) were treated with experimental conditions used for phenotypic screening including the SuTEx ligand pretreatment (25 μM, 2 h) followed by PB (glucose-deprivation, 15 min) and SG induction (75 μM [COMPOUND LEFT OUT], 30 min). Afterwards, cells were lysed, soluble proteomes treated with HHS-465 SuTEx probe (100 μM, 1 h), a global Tyr/Lys-reactive probe used previously for RNP granule investigations (Ciancone et al., 2022), and samples processed to probe-modified peptides for LC-MS/MS analysis as previously reported (Huang et al., 2021), shown in FIG. 10.
We detected ~8,700 probe-modified sites (Tyr and Lys) in our aggregate HeLa and HEK293T chemical proteomic analyses. […]

T1 sequence (Q13283 whole entry, the tested form may be a part): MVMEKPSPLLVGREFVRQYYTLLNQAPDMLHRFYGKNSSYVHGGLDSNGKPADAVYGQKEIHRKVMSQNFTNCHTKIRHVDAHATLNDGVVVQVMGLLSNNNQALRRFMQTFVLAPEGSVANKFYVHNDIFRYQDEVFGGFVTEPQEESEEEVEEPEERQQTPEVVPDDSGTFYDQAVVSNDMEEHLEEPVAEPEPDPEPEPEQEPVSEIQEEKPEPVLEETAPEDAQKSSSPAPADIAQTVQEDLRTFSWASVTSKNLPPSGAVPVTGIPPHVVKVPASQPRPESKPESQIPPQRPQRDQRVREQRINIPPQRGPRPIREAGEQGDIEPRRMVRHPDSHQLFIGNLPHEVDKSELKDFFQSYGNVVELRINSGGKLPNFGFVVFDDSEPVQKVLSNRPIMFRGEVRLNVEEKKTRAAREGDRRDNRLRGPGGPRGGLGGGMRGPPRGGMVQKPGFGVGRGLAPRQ

Compound	inhibition at 25 µM [1] [%]	effect on SG formation (in words) [1]	liganding of G3BP1 Y40 (in words) (G3BP1 Y40)	SILAC ratio (SR), G3BP1 Y40 (G3BP1 Y40; HHS-465 100 μM, DMSO (light)/ligand (heavy))
N#Cc1ccc(S(=O)(=O)n2cc(-c3cccc(Cl)c3)nn2)cc1 [EKT231, 4-((4-(3-Chlorophenyl)-1H-1,2,3-triazol-1-yl)sulfonyl)benzonitrile]	9 to 13	not observed; also recorded: inactive	lack of binding activity	
COc1ccc(S(=O)(=O)n2cc(C3CCCCC3)nn2)cc1 [HHS-166, 4-Cyclohexyl-1-((4-methoxyphenyl)sulfonyl)-111-1,2,3-triazole]	57	statistically significant decrease in SGs; also recorded: blocked; also recorded: statistically significant decreases in SG formation	liganded G3BP1 Y40; also recorded: liganded site (Y40)	> 2
